Literature values, collected in US6703346B2, “Herbicide compositions comprising imidazolinone acid, methods of preparation, and methods of use” (Platte Chemical Co., priority 2001, dated 2004).

Settings: general statement, no measurement described

Molecule | pKa
CC(C)C1(C)N=C(c2nc3ccccc3cc2C(=O)O)NC1=O (stereo not drawn) [imazaquin] | approximately 3.8
imazamethbenz | approximately 2.9
CCc1cnc(C2=NC(C)(C(C)C)C(=O)N2)c(C(=O)O)c1 (stereo not drawn) [imazethapyr] | approximately 3.9
